Data as given in patent US20250084453A1, “SYSTEMS, COMPOSITIONS AND METHODS FOR IDENTIFYING E3 LIGASE SUBSTRATES BY UBIQUITIN BIOTINYLATION” (The Broad Institute, Inc., priority 2022, published 2025).

Tests used:
[1] = target: T1, VHL E3 ligase (UniProt P06709+P40337); assay: Ubiquitin biotinylation MS profiling of BET/PTK2 degraders in VHL-BirA cells; format: cell-based, human; conditions: A3-HA-Ub, 1 μM, 1 hour, FIG. 10
T1 construct: expressed in transfected cells
Procedure: (§1) Enrichment of biotinylated species by streptavidin-coated beads, protein digestion, and protein identification and quantification by mass spectrometry were performed exactly as described in Examples 3 and 4. Triplicate samples allowed for statistical analysis of differentially enriched proteins, represented by log 2-fold-change (FC) between the PROTAC®-treated group and the DMSO-treated group on the x-axis, and significance (p-value estimated by limma) on the y-axis in the figures.

[2] = target: PTK2 (Homo sapiens, UniProt Q05397); conditions: cited from earlier work
[3] = test system: CRBN E3 ligase; assay: Ubiquitin biotinylation MS profiling of BET/PTK2 degraders in CRBN-BirA cells; format: cell-based, human; conditions: A3-HA-Ub, 1 μM, 1 hour, FIG. 10
Procedure: as §1

[4] = test system: CRBN E3 ligase; assay: Ubiquitin biotinylation MS profiling of multikinase PROTACs in HEK293T CRBN-/- CRBN-BirA cells; format: cell-based, human; conditions: A3-HA-Ub; PROTAC 1 μM, 45 minutes after carfilzomib; FIGS. 13A-13D
Source text: In this example, PROTAC® (proteolysis-targeting chimera) molecules that target kinases were created by linking certain kinase degraders with IMiDs analogs. (FIG. 12). PROTAC®s recruit a target protein to be in proximity to an E3 ubiquitin ligase to trigger protein degradation. The ubiquitinated targets of four CRBN-recruiting multi-kinase PROTAC®s were generated to contain the following multikinase degraders: SK-3-91, DB0646, SB1-G-187 and WH-10417-099. These four degraders can collectively induce degradation of a large number of distinct kinases (>125 distinct kinases). FIGS. 13A-13D show the results of a mass spectrometry experiment in which protein substrates susceptible to induced ubiquitination by the abovementioned four multikinase degraders were identified, respectively. These experiments were performed in HEK293T^CRBN−/− cells lentivirally engineered to express CRBN-BirA and transiently expressing A3-HA-Ub. While cultured in biotin-free medium, the cells were pre-treated with carfilzomib (carf; 0.4 μM) for 1 hour, and then were either treated or untreated with the kinase-targeting PROTAC®s (1 μM) for another 45 minutes. […] Enrichment of biotinylated species by streptavidin-coated beads, protein digestion, and protein identification and quantification by mass spectrometry were performed exactly as described in Example 3 and 4. Triplicate samples allowed for statistical analysis of differentially enriched proteins, represented by log 2-fold-change (FC) between the PROTAC®-treated group and the DMSO-treated group on the x-axis, and significance (p-value estimated by limma) on the y-axis in the figures. FIGS. 13A-13D present the induced ubiquitinated substrates for SK-3-91, DB0646, SB1-G-187 and WH-10417-099, respectively, shown and labeled in the upper right quadrant of the plot.

[5] = target: T2, DCAF15 E3 ubiquitin ligase (UniProt P06709+Q14498+Q66K64); assay: Ubiquitin biotinylation MS profiling of molecular glue in HEK293T DCAF15-BirA cells; format: cell-based, human; conditions: A3-HA-Ub, 10 μM, 1 hour, FIG. 11
T2 construct: expressed in transfected cells
Procedure: The protocol used in this experiment is the same as that described in Example 6 above, except that the system was evaluated in a HEK293T cell line lentivirally engineered to express DCAF15-BirA and transiently expressing A3-HA-Ub. While cultured in biotin-free medium, the cells were pre-treated with carfilzomib (carf; 0.4 μM) for 1 hour, and then were either treated or untreated with E7820 (10 μM) for another hour. […] Enrichment of biotinylated species by streptavidin-coated beads, protein digestion, and protein identification and quantification by mass spectrometry were performed exactly as described in Examples 3 and 4. Triplicate samples allowed for statistical analysis of differentially enriched proteins, represented by log 2-fold-change (FC) between the E7820-treated group and the DMSO-treated group on the x-axis, and significance (p-value estimated by limma) on the y-axis in the figures. […] Consistent with the expected action of the E7820 glue in the system, the induced ubiquitinated protein RBM39/CAPERα was detected as the target of the E7820 sulfonamide, based on binding activity or protein degradation.

[6] = target: T1, VHL E3 ligase; assay: Ubiquitin biotinylation MS with VHL inhibitor in A375 cells expressing VHL-BirA; format: cell-based, human; conditions: MLN4924 pre-treatment and washout, VH298 30 minutes, FIG. 18
Procedure: Experiments were conducted using the methods and systems described herein in conjunction with an inhibitor of an E3 ligase utilized in the experiment. […] The experiments were performed in A375 cells that transiently expressed A3-HA-Ub and VHL-BirA. While cultured in biotin-free medium, the cells were pre-treated with MLN4924 (1 μM) for 2 hours. Thereafter, MLN4924 was washed out of the cell culture with one PBS wash and was replaced with biotin-free medium.
Next, the cells were lysed and kept on ice to terminate the reaction. Enrichment of biotinylated species by streptavidin-coated beads, protein digestion, and protein identification and quantification by mass spectrometry were performed exactly as described in Examples 3 and 4. The samples were analyzed in triplicate to allow for statistical analysis of differentially enriched proteins, represented by log 2-fold-change between the VH298-treated E3 ligase group and the wild-type E3 ligase group on the y-axis, and significance (p-value estimated by limma) on the x-axis in the figures. […] A decrease in biotinylation owing to the inhibitor treatment was observed. Consistent with the expected actions of VHL, HIF1A was identified as a substrate.

[7] = test system: CRBN E3 ligase; assay: Ubiquitin biotinylation MS profiling of HDAC degrader in 293T CRBN-/- CRBN-BirA cells; format: cell-based, human; conditions: CRBN-BirA, A3-HA-Ub; 1 μM, 45 minutes; FIG. 14A
Procedure: as §1, with “The experiments involving CRBN E3 ligase were performed in HEK293T^CRBN−/− cells lentivirally engineered to express CRBN-BirA and transiently expressing A3-HA-Ub. The HDAC degrader XY-07-097 was used in the experiments using the CRBN E3 ligase. The experiments involving VHL E3 ligase were performed in HEK293T cells lentivirally engineered to express VHL-BirA and transiently expressing A3-HA-Ub. The HDAC degrader XY-07-187 was used in the experiments using the VHL E3 ligase. […] Enrichment” for “Enrichment”, “Example” for “Examples”
(§2) Desalted peptides were dried in a vacuum-centrifuged and reconstituted in 0.1% formic acid for LC-MS analysis. Data were collected using a TimsTOF Pro2 (Bruker Daltonics, Bremen, Germany) coupled to a nanoElute LC pump (Bruker Daltonics, Bremen, Germany) via a CaptiveSpray nano-electrospray source. […]

[8] = target: T1, VHL E3 ligase; assay: Ubiquitin biotinylation MS profiling of HDAC degrader in 293T VHL-BirA cells; format: cell-based, human; conditions: A3-HA-Ub, 1 μM, 45 minutes, FIG. 14B
Procedure: as §1, with “The experiments involving CRBN E3 ligase were performed in HEK293T^CRBN−/− cells lentivirally engineered to express CRBN-BirA and transiently expressing A3-HA-Ub. The HDAC degrader XY-07-097 was used in the experiments using the CRBN E3 ligase. The experiments involving VHL E3 ligase were performed in HEK293T cells lentivirally engineered to express VHL-BirA and transiently expressing A3-HA-Ub. The HDAC degrader XY-07-187 was used in the experiments using the VHL E3 ligase. […] Enrichment” for “Enrichment”, “Example” for “Examples”
as §2

[9] = test system: GSPT1; assay: GSPT1 degradation by Western blot in HEK293T cells and CRBN-/- derivatives; format: cell-based, human; conditions: carfilzomib 0.4 μM 1 hour before CC-885 1 μM
Procedure: However, instead of assessing transiently-expressed V5-tagged IKZF1, an endogenous neo-substrate of CRBN, namely, GSPT1, was assessed. […] Following incubation with the components and added agents, the cells were lysed, and streptavidin-coated beads were used to capture from the cell lysate biotinylated, ubiquitinated proteins, e.g., the endogenous GSPT1 substrate. The biotinylated proteins eluted from the beads were subjected to Western blot analyses.

[10] = test system: BET bromodomains; conditions: degrader of BET bromodomains; cited from earlier work
[11] = target: T3, V5-IKZF1 (Homo sapiens, UniProt Q13422+Q96SW2); assay: Streptavidin pulldown and Western blot of biotinylated ubiquitinated V5-IKZF1 in 293T CRBN-/- CRBN-BirA cells; format: cell-based
T3 construct: expressed in transfected cells; host or cells: 293T CRBN-/- cells stably expressing CRBN-BirA; pRK5 vector, transient
Procedure: One day (approximately 24 hours) after the transfection, DMSO (untreated) or carfilzomib (0.4 μM), (“carf”), was added to the cells for 1 hour.
A portion of the lysates (referred to as inputs) were saved for Western blotting analyses. […] The eluates were analyzed by SDS-PAGE gel electrophoresis and Western blotting analyses.
The preparation of cellular lysate was as described above for Cell Lysis, except that the RIPA buffer was supplemented with COMPLETE™ EDTA-free protease inhibitor cocktail (Roche; 04693159001; 1 tablet per 10 ml of buffer), benzonase (Millipore; E1014; 1 μl per 10 ml of buffer), 1.5 mM MgCl2, 1 mM EGTA, and 10 mM NEM (N-ethylmaleimide). For each sample, 1 ml of 3 mg/ml lysate was rotated overnight at 4° C. with 50 μl of resuspended streptavidin Sepharose beads (CYTIVA™; 17511301), which were pre-washed with RIPA lysis buffer 3 times. For all steps that required pelleting of beads, centrifugation was performed at 400×g for 1 minute. On the next day, streptavidin beads were pelleted, and the supernatant (a.k.a. flow-through) was either saved for analysis by Western blotting or was discarded. Streptavidin beads were then washed two times with 1 ml of 2% SDS wash buffer (2% SDS, 25 mM Tris-HCl, pH 7.5), and three times with 0.5-1 ml of 2M urea wash buffer (2M urea, 50 mM Tris-HCl, pH 8). Between each wash, the beads were rotated at room temperature for at least 5 minutes. During the last wash, the beads and the washing buffer were transferred to a new microfuge tube. […] For mass spectrometry-based analysis, the procedures described in On-bead Digestion below were used.
On the next day, the cells were transfected using pRK5-Avi-HA-ubiquitin or pRK5-A3-HA-ubiquitin in serum-free DMEM.

[12] = target: T4, BirA (Escherichia coli, UniProt P06709); conditions: cited from earlier work
[13] = target: T4, BirA

T3 sequence (Q13422 whole entry): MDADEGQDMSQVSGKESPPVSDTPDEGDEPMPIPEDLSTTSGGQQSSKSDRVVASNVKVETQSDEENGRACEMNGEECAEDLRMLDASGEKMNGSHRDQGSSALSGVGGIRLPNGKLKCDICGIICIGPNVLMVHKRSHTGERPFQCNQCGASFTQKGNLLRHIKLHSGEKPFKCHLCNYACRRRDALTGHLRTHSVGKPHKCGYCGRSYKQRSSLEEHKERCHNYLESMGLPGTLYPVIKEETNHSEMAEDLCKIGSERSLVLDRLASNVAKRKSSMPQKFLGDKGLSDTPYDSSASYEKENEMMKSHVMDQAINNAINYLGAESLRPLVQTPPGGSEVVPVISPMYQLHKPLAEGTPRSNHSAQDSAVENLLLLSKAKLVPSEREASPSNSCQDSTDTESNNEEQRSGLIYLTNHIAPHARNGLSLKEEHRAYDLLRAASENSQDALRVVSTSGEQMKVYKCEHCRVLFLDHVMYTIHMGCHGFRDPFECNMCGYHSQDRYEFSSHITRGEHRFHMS
T3 sequence (Q96SW2 whole entry): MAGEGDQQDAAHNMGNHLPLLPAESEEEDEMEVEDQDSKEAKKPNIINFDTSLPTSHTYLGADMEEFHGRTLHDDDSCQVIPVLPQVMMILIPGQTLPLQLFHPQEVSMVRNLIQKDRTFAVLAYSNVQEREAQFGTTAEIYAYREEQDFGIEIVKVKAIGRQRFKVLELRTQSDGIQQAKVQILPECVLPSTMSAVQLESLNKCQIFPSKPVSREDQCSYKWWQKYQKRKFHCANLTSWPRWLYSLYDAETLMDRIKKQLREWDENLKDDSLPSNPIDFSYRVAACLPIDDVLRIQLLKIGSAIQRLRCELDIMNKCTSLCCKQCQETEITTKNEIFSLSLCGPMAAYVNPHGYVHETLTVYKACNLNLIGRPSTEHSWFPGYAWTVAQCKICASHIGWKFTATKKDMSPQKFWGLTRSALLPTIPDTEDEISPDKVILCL
T4 sequence (P06709 whole entry): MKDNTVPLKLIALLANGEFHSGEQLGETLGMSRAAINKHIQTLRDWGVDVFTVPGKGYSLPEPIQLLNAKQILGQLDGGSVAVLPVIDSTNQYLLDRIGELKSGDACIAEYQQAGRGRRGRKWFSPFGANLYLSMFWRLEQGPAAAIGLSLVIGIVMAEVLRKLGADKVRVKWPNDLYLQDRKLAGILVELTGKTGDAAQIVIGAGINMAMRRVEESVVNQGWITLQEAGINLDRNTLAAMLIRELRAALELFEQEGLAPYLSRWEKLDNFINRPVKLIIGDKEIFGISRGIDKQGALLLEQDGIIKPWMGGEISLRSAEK
T1 sequence (P40337+P06709 fused): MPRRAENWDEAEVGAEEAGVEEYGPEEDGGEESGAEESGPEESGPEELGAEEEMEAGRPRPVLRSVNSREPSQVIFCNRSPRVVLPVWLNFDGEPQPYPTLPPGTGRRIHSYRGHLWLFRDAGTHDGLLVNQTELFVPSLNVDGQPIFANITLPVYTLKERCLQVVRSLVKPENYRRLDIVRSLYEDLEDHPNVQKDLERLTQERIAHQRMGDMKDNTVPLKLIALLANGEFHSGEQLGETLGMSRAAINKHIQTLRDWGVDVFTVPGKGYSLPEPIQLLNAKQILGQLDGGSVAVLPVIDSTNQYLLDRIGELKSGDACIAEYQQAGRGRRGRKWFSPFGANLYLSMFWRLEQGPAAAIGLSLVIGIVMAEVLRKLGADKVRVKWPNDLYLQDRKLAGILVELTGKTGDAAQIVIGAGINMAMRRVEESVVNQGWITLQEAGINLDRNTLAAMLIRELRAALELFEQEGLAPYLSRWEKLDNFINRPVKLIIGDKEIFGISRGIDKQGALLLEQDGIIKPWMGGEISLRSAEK
T1 sequence (Q15369 whole entry, further chain): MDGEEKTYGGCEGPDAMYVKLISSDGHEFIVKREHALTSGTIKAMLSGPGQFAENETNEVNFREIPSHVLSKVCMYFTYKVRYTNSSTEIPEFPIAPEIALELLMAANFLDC
T1 sequence (Q15370 whole entry, further chain): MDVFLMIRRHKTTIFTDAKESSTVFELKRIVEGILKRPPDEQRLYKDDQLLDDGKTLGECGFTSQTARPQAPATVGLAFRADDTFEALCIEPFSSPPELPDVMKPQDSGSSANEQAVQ
T2 sequence (Q14498 whole entry): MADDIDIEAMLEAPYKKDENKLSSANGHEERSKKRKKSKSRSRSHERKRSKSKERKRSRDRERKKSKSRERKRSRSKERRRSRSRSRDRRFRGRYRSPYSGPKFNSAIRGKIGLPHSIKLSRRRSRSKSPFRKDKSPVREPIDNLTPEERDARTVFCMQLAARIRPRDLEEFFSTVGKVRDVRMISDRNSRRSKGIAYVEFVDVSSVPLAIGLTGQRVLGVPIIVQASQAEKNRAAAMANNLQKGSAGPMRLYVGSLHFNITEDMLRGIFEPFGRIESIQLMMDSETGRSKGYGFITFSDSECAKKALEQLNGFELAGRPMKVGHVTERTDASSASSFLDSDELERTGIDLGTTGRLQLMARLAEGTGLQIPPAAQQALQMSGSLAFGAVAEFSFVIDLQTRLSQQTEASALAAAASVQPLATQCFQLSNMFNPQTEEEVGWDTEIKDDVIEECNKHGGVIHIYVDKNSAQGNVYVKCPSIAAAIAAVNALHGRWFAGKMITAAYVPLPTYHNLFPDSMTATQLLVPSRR
T2 sequence (Q16531 whole entry, further chain): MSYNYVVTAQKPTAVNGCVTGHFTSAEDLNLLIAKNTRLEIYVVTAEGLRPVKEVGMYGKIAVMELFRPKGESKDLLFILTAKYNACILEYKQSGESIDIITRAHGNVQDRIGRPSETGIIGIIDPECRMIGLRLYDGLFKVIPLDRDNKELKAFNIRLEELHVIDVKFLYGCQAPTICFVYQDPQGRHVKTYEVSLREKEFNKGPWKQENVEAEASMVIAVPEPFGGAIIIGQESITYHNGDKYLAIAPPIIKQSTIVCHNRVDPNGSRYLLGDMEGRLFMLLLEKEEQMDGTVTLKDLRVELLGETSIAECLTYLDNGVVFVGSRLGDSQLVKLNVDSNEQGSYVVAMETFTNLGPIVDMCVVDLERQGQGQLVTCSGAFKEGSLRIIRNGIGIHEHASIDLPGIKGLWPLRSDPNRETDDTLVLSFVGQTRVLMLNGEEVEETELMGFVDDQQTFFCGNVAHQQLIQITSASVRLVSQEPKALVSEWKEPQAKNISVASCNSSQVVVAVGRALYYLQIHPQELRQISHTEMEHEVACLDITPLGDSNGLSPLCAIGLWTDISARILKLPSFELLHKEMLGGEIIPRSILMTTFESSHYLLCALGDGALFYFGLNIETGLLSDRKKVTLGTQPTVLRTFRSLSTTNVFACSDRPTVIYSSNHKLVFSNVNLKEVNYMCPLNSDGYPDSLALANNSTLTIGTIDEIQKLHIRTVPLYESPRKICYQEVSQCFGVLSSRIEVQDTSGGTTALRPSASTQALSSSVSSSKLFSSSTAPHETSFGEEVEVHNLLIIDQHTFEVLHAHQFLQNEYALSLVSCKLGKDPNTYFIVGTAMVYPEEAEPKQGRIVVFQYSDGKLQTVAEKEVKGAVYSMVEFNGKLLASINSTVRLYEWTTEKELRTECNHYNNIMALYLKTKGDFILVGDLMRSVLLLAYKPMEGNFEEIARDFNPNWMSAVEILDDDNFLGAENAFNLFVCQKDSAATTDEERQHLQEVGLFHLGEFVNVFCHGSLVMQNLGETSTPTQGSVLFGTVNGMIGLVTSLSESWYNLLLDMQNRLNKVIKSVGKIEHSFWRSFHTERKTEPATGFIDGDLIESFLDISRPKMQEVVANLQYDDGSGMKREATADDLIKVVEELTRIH
T2 sequence (Q66K64+P06709 fused): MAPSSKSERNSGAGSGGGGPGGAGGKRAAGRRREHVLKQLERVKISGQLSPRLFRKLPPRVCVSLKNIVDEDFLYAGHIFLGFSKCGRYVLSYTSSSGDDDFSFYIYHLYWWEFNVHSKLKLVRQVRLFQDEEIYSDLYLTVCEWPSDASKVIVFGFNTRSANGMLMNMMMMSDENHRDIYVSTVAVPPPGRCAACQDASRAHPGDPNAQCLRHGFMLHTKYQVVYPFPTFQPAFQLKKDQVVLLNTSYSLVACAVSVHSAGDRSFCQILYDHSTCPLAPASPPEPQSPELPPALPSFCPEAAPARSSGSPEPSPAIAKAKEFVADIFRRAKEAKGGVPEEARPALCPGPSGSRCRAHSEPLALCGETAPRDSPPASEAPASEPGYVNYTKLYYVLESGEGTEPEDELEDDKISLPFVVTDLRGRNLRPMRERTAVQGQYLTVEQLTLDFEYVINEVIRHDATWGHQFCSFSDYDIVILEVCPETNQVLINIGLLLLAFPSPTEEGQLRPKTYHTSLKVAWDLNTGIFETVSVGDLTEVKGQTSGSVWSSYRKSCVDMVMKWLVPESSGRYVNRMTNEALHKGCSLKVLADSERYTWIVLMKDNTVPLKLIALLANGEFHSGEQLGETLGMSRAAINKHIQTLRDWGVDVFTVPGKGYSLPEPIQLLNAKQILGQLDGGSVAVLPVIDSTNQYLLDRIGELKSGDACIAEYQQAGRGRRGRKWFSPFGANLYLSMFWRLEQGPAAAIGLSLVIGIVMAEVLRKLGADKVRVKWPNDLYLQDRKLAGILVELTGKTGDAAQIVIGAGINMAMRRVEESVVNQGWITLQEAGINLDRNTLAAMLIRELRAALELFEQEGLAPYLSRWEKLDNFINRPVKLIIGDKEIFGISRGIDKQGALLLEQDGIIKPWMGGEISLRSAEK

Q: Which “Induced ubiquitinated substrates versus DMSO” value [1] does the source give for `Cc1ncsc1-c1ccc([C@H](C)NC(=O)[C@@H]2C[C@@H](O)CN2C(=O)[C@@H](NC(=O)COCCCOCCNC(=O)C[C@@H]2N=C(c3ccc(Cl)cc3)c3c(sc(C)c3C)-n3c(C)nnc32)C(C)(C)C)cc1` [ARV-771] here?
A: BRD2, BRD3, BRD4

Q: Which “Induced ubiquitinated substrates versus DMSO” value [1] does the source give for `COc1cc(C(=O)NCCOCCOCCOCC(=O)N[C@H](C(=O)N2C[C@H](O)C[C@H]2C(=O)NCc2ccc(-c3scnc3C)cc2)C(C)(C)C)ccc1Nc1ncc(C(F)(F)F)c(Oc2cccc3c2C(=O)CC3)n1` [BI-0319] here?
A: PTK2

Q: With `COc1cc(C(=O)NCCOCCOCCOCCC(=O)Nc2cccc3c2C(=O)N(C2CCC(=O)NC2=O)C3=O)ccc1Nc1ncc(C(F)(F)F)c(Oc2cccc3c2C(=O)CC3)n1` (centres unmarked) [BI-3663] as the compound, how does the IC50 [2] read?
A: 18 nM

Q: And the “Induced ubiquitinated substrates versus DMSO” value [3]?
A: PTK2

Q: With `Cc1ccc(NC(=O)c2cccc(C(F)(F)F)c2)cc1N1Cc2cnc(Nc3ccc(N4CCN(Cc5cn(CCCCCOc6cccc7c6C(=O)N(C6CCC(=O)NC6=O)C7=O)nn5)CC4)nc3)nc2N(C)C1=O` (centres unmarked) [DB0646] as the compound, how does the “Induced ubiquitinated proteins versus DMSO” value [4] read?
A: the majority of the induced ubiquitinated proteins detected were kinase targets

Q: Which “Induced ubiquitinated substrate versus DMSO” value [5] does the source give for `Cc1ccc(NS(=O)(=O)c2cccc(C#N)c2)c2[nH]cc(C#N)c12` [E7820] here?
A: RBM39/CAPERα

Q: With `Cc1ccc(C(=O)Nc2ccc(CN3CCN(CCCOCCOCCOCCNC(=O)COc4cccc5c4C(=O)N(C4CCC(=O)NC4=O)C5=O)CC3)c(C(F)(F)F)c2)cc1C#Cc1cnc2cccnn12` (centres unmarked) [SB1-G-187] as the compound, how does the “Induced ubiquitinated proteins versus DMSO” value [4] read?
A: the majority of the induced ubiquitinated proteins detected were kinase targets

Q: For `CC(C)S(=O)(=O)c1ccccc1Nc1nc(Nc2ccc(N3CCN(CCOCCNC(=O)CNc4cccc5c4C(=O)N(C4CCC(=O)NC4=O)C5=O)CC3)cc2)ncc1Cl` (centres unmarked) [SK-3-91], which “Induced ubiquitinated proteins versus DMSO” value [4] is on record?
A: the majority of the induced ubiquitinated proteins detected were kinase targets

Q: Which “VHL substrate revealed by decrease in biotinylation owing to the inhibitor treatment” value [6] does the source give for `Cc1ncsc1-c1ccc(CNC(=O)[C@@H]2C[C@@H](O)CN2C(=O)[C@@H](NC(=O)C2(C#N)CC2)C(C)(C)C)cc1` [VH298] here?
A: HIF1A

Q: For `O=C(/C=C/c1ccc(CN(CCCCCNc2cccc3c2C(=O)N(C2CCC(=O)NC2=O)C3=O)CCc2c[nH]c3ccccc23)cc1)NO` (centres unmarked) [XY-07-097], which “Induced ubiquitinated HDAC substrates versus DMSO” value [7] is on record?
A: HDAC2, HDAC6, and HDAC8

Q: With `Cc1ncsc1-c1ccc(CNC(=O)[C@@H]2C[C@@H](O)CN2C(=O)C(NC(=O)C2(F)CC2)C(C)(C)C)c(OCCCCCN(CCc2c[nH]c3ccccc23)Cc2ccc(/C=C/C(=O)NO)cc2)c1` (some centres unmarked) [XY-07-187] as the compound, how does the “Induced ubiquitinated HDAC substrates versus DMSO” value [8] read?
A: HDAC1, HDAC2, HDAC6, and HDAC8

Q: Which “Rescue of CC-885-induced GSPT1 degradation” value [9] does the source give for `CC(C)C[C@H](NC(=O)[C@H](CCc1ccccc1)NC(=O)CN1CCOCC1)C(=O)N[C@@H](Cc1ccccc1)C(=O)N[C@@H](CC(C)C)C(=O)[C@@]1(C)CO1` [carfilzomib] here?
A: partially rescued

Q: What does the source list for `Cc1sc2c(c1C)C(c1ccc(Cl)cc1)=N[C@@H](CC(=O)NCCCCCCCCNC(=O)COc1cccc3c1C(=O)N(C1CCC(=O)NC1=O)C3=O)c1nnc(C)n1-2` (some centres unmarked) [dBET6]?
A: IC50 [10]: ~10 nM; Induced ubiquitinated substrates versus DMSO [3]: BRD2, BRD3, BRD4

Q: What does the source list for `Nc1cccc2c1C(=O)N(C1CCC(=O)NC1=O)C2=O` (centres unmarked) [pomalidomide]?
A: Induced ubiquitination of IKZF1 by E3 ligase CRBN [11]: showed pomalidomide-induced ubiquitination of IKZF1; Mono- and poly-ubiquitinated V5-IKZF1 captured by streptavidin beads [11]: increased amount; Ubiquitinated V5-IKZF1 captured by streptavidin beads compared with DMSO [11]: approximately 3.9 fold

Q: For GLNDIFEAQKIE [A3-Tag], which Km [12] is on record?
A: 345 µM

Q: And the “Increase in Km relative to Avi-Tag” value [13]?
A: ~14 fold

Q: Which Km [12] does the source give for GLNDIFEAQKIEWHE [Avi-Tag] here?
A: 25 µM
